Results on 1 molecule are retold here after PMC8434109, “Synthesis and Biological Activity of a Cytostatic Inhibitor of MLLr Leukemia Targeting the DOT1L Protein” (Molecules, 2021).

For orientation: IC50 means the midpoint of a concentration-inhibition curve.

Molecules are shown by their SMILES.

One assay concerns MOLM-13 cells (MLL-AF9). The assay is described as follows: Cell proliferation, trypan blue counting. In kind it is cell-based. Conditions: Homo sapiens, 360 h; MOLM-13 (AF9), 15-day treatment; read-out: EC50 of the proliferation inhibition.
A further assay has as its system H3K79me2 in MOLM13 cells. The assay is described as follows: Western blot of H3K79me2 normalized to total H3. Conditions: MOLM13, 6 days. It is filed as cell-based, human. Here is the method:
(§1) Next, we evaluated the effect on the demethylation of H3K79 in MLL-AF9 MOLM13 cells (Figure 7B).
(§2) The non-adherent cell lines MV4-11, MOLM-13, and KOPN8 exponentially growing cells were plated in 12-well plates (1 plate for each experiment) at a rate of 500,000 cells per well at a final volume of 2 mL. The cells were incubated in the presence of increasing inhibitor concentrations (0.1, 0.32, 1, 3.2, 10 µM). The cells (1 to 2 million) were harvested at the time chosen according to the line in order to extract the histones and the RNAs.
(§3) For the isolation of histones from cells, 1 to 2 million cells were collected, after exposure to the chosen treatment, by centrifugation at 200× g and lysed by 5 min of incubation on ice in 250 μL of the nuclear extraction buffer (10 mM Tris-HCl, 10 mM MgCl2, 25 mM KCl, 1% Triton X-100, 8.6% sucrose, Roche Protease inhibitor tablet 1836145). The nuclei were collected by centrifugation at 600× g for 5 min at 4 °C. The supernatant was removed and the histones were extracted for 1 h with 0.4 N cold sulfuric acid. The extracts were clarified by centrifugation at 10,000× g for 10 min at 4 °C and transferred to a microcentrifuge tube containing a 10× volume of ice-cold acetone. The histones were precipitated at ‒20 °C overnight and recovered by centrifugation at 1500× g for 10 min in the form of a pellet and then resuspended in 80 μL of water. Histones were quantified by absorbance measured by a nanodrop at 276 nm.
(§4) After extraction, the histones (500ng) were separated on 4–20% Tris-Glycine gels (Invitrogen) and transferred onto a nitrocellulose membrane ([…]) using the iBlot® Gel Transfer Stacks Nitrocellulose kit Mini (Invitrogen). After blocking nonspecific sites for 1 h at room temperature in a solution of 1X TBS at 5% milk, the membrane was incubated with rabbit anti-H3K79me2 (ab3594, 1/1000) or anti-H3 (ab1791)1/1000) overnight at 4 °C or 1 h at RT. The membrane was then washed three times for 5 min in a 1X TBS solution containing 0.05% Tween20 and was then incubated with an HRP anti-rabbit secondary antibody (NA934V, 1/10,000) for 1 h at RT. […]
(In western blotting, separated proteins are transferred to a membrane and probed.)

A further assay has as its system H3K79me2 in MV4-11 cells. The assay is described as follows: Western blot of H3K79me2 normalized to total H3. In kind it is cell-based, human. The note with it: MV4-11, 4 days, increasing concentrations. Here is the method: as §1, §2, §3, §4
Assay [1] relates to HOXA9 and MEIS1 expression in MV4-11, MOLM13 and KOPN8 cells. The assay is described as follows: Quantitative real-time PCR of MLL target genes. It is filed as cell-based, human. Conditions: 0.1, 0.32, 1 and 3.2 µM; 6 days MV4-11 and MOLM13, 10 days KOPN8. Here is the method:
We then investigated the impact of the inhibition of H3K79me2 in MLLr cells on the expression of the pro-leukemic genes, HOXA9 and MEIS1. These are MLL target genes and have been characterized for being activated by the aberrant H3K79 methylation by DOT1L recruited at these genes by the MLL-fusion proteins and inhibited by DOTL1 inhibitors. […] The difference in kinetics is related to the doubling time of the cells (Table 1), indeed, we measured that the doubling time of MV4-11 is 12 h while the doubling time for MOLM-13 is 22 h.
The non-adherent cell lines MV4-11, MOLM-13, and KOPN8 exponentially growing cells were plated in 12-well plates (1 plate for each experiment) at a rate of 500,000 cells per well at a final volume of 2 mL. The cells were incubated in the presence of increasing inhibitor concentrations (0.1, 0.32, 1, 3.2, 10 µM). […]
Total RNA was isolated from the cell pellet of at least 1 × 10^6 cells using the RNAeasy mini kit (Cat No.: 74106, Qiagen) according to the manufacturer’s instructions. […] Complementary DNA (cDNA) was diluted at 1:10 and used as a template in quantitative real-time PCR (RT-qPCR) using the SYBR Green Master Kit (ref. 047516001, Roche, Boulogne-Billancourt, France) and LightCycler®480 (Roche, Boulogne-Billancourt, France) System according to the manufacturer’s instructions. […]

For a further assay, the target named is DNMT3A (Homo sapiens, UniProt Q9Y6K1). The experiment in a line: hDNMT3Acat activity assay. It is filed as biochemical. Conditions: substrate DNA, read-out: Enzyme % Activity (relative to DMSO controls). On the procedure:
(§5) Table S1: Selectivity of the compound on a HMT panel (by Reaction Biology, USA) and on hDNMT3Acat (as described in Ceccaldi
(§6) Enzyme % Activity (relative to DMSO
(§7) Testing Concentration 10µM
(§8) Methyltransferase: Substrate: Activity enzyme in %

The subject of assay [2] is histone marks H2R2me2S, H3K4me3, H3K9me2, H4K20me2, H4K20me3, H3K9me1, H3K36me1. The assay is described as follows: Selectivity on histone marks by fluorescence microscopy HCS. It is filed as cell-based. The note with it: 7 tested histone marks other than H3K79me2. On the procedure:
This difference in the mechanism was further confirmed by flow cytometry analysis of the impact of the compounds on the cell cycle and apoptosis.
as §5, §6, §7, §8
EZH2 Complex Core Histone 86±1
Figure S4. Selectivity evaluation of the compound Dia-2 by fluorescence microscopy HCS. A) fluorescence imaging of the
H3K79me2 mark B) bar diagram of the percentage of inhibition for compound Dia-2.
(1 picture or pasted object on this page, not shown here)

For the next assay, the target named is recombinant hDOT1L (Homo sapiens, UniProt Q8TEK3). The experiment in a line: AlphaLISA DOT1L enzymatic inhibition assay on purified nucleosomes. (In general: Bead proximity is the source of the signal in Alpha formats.)
Sequence of recombinant hDOT1L (Q8TEK3 1-416): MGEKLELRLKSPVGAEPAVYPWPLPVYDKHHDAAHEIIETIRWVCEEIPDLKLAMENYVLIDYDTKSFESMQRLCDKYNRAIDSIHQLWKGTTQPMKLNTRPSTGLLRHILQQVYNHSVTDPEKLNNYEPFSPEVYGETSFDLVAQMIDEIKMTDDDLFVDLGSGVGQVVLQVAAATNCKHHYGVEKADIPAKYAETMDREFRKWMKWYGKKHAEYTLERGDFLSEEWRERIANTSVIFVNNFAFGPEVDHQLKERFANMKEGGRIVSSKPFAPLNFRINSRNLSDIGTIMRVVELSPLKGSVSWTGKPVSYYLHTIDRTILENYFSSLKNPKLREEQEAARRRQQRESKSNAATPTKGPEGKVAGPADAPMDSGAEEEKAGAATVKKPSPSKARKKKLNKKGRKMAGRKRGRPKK

Sequence of DNMT3A (Q9Y6K1 634-912 limits assumed): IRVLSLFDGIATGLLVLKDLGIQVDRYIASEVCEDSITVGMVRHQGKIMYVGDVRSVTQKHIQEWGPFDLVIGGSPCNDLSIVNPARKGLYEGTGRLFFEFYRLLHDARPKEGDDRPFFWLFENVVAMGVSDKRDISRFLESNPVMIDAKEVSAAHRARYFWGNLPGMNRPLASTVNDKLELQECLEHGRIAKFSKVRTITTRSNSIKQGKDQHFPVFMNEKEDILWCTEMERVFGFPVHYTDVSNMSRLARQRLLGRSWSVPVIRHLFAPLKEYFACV

Take `CC(C)[C@H](CCCNC(=O)Nc1ccc(C(C)(C)C)cc1)N[C@H]1C[C@@H](n2cnc3c(N)ncnc32)[C@H](O)[C@@H]1O` [Dia2, 1-((S)-4-(((1S,2R,3S,4R)-4-(6-amino-9H-purin-9-yl)-2,3-dihydroxycyclopentyl)amino)-5-methylhexyl)-3-(4-(tert-butyl)phenyl)urea]: the EC50 with MOLM-13 cells (MLL-AF9) came out at 0.12 ± 0.01 µM. Further, the “inhibition of the H3K79me2 mark” value in the assay with H3K79me2 in MOLM13 cells was “as efficient as EPZ-5676”. The “H3K79me2 methylation compared to DMSO treated cells” value with H3K79me2 in MV4-11 cells is reported as “efficient decrease in methylation”. Besides, in assay [1], the “MEIS1 and HOXA9 expression” value is listed as “decrease in a dose-dependent manner”. Besides, the remaining activity at 10 µM on DNMT3A came to 96 ± 2%. Moreover, the “effect on other histone marks in cells” value in assay [2] is given as “does not affect the other 7 tested histone marks”. For the same molecule, the IC50 at recombinant hDOT1L amounted to 0.0047 µM.
